Activity calls are given as the source filed them. No cut-off for these calls is given here.
Tests used:
[1] = Cytotoxicity against human MCF10A cells assessed as cell viability at 50 uM after 96 hrs by MTT assay relative to control; format: cell-based, MCF-10A; conditions: read-out: Activity
[2] = Inhibition of ROS generation in human PMN at 0.78 ug/ml after 50 mins by luminol-based chemiluminescence assay relative to control; format: functional
[3] = Inhibition of ROS generation in human PMN at 1.56 ug/ml after 50 mins by luminol-based chemiluminescence assay relative to control; format: functional
PC-3 = experiment: Antiproliferative activity human PC3 cells after 48 hrs by propidium iodide staining-based fluorescence assay; format: functional, cell-based; conditions: PC-3, 48 h
A549 = experiment: Antiproliferative activity human A549 cells after 48 hrs by propidium iodide staining-based fluorescence assay; format: functional, cell-based; conditions: A549, 48 h
MCF7 [4] = experiment: Antiproliferative activity human MCF7 cells after 48 hrs by propidium iodide staining-based fluorescence assay; format: functional, cell-based; conditions: MCF7, 48 h
MIA PaCa-2 = experiment: Antiproliferative activity human MIAPaCa2 cells after 48 hrs by propidium iodide staining-based fluorescence assay; format: functional, cell-based; conditions: MIA PaCa-2, 48 h
HT-29 = experiment: Antiproliferative activity human HT-29 cells after 48 hrs by propidium iodide staining-based fluorescence assay; format: functional, cell-based; conditions: HT-29, 48 h
Tubulin (Homo sapiens) = Tubulin (Homo sapiens) (UniProt P68371+Q9H4B7+P0DPH7+P68366+Q13509+Q71U36+P04350+Q3ZCM7+P07437+P68363+Q9BQE3+Q6PEY2+Q13885+Q9BVA1+Q9BUF5); experiment: Inhibition of tubulin (unknown origin) polymerization assessed as tubulin assembly rate by fluorescence assay; format: protein-complex assay
[5] = molecular target: Epidermal growth factor receptor (Homo sapiens, UniProt P00533); experiment: Inhibition of His6-tagged EGFR (unknown origin) cytoplasmic domain expressed in baculovirus infected Sf9 insect cells after 10 mins followed by addition of ATP-MgCl2 and measured after 1 hr by time-resolved fluorometric analysis
[6] = molecular target: Serine/threonine-protein kinase B-raf (Mus musculus, UniProt P28028, V600E); experiment: Inhibition of mouse full-length GST-tagged BRAF V600E mutant using recombinant human full length N-terminal His-tagged MEK1 as substrate preincubated for 60 mins followed by substrate addition and measured after 25 mins by ELISA
[7] = Inhibition of ROS generation in human PMN at 3.13 ug/ml after 50 mins by luminol-based chemiluminescence assay relative to control; format: functional
[8] = Inhibition of ROS generation in human PMN at 6.25 ug/ml after 50 mins by luminol-based chemiluminescence assay relative to control; format: functional
[9] = Inhibition of ROS generation in human PMN at 12.5 ug/ml after 50 mins by luminol-based chemiluminescence assay relative to control; format: functional
[10] = (§1) Inhibition of ROS generation in human PMN after 50 mins by luminol-based chemiluminescence assay; format: functional
Homo sapiens = species: Homo sapiens; experiment: as §1; format: functional
[11] = Antioxidant activity assessed as DPPH radical scavenging activity at 100 uM after 30 mins dark incubation; format: functional
[12] = Antioxidant activity assessed as DPPH radical scavenging activity at 50 uM after 30 mins dark incubation; format: functional
[13] = Antioxidant activity assessed as DPPH radical scavenging activity at 10 uM after 30 mins dark incubation; format: functional
Mus musculus [14] = experiment: (§2) Inhibition of chlorpyrifos-induced testicular damage in albino mouse assessed as increase in spermatogenic cell layers at 20 mg/kg, qd administered via oral gavage followed by chlorpyrifos challenge at 30 mins post dose by haematoxylin and eosin staining-based light microscopic analysis; format: functional, organism-based
Mus musculus [15] = experiment: as §2, with “appearance of well-organized” for “increase in”, “spermatogenic” for “spermatogenic cell”, “layers at different stages of spermatogenesis” for “layers”; format: functional, organism-based
Mus musculus [16] = experiment: (§3) Inhibition of chlorpyrifos-induced testicular damage in albino mouse assessed as appearance of normal sertoli cells at 20 mg/kg, qd administered via oral gavage followed by chlorpyrifos challenge at 30 mins post dose by haematoxylin and eosin staining-based light microscopic analysis; format: functional, organism-based
Mus musculus [17] = experiment: Inhibition of chlorpyrifos-induced testicular damage in albino mouse assessed as appearance of spermatozoa tails in lumina at 20 mg/kg, qd administered via oral gavage followed by chlorpyrifos challenge at 30 mins post dose by haematoxylin and eosin staining-based light microscopic analysis; format: functional, organism-based
Mus musculus [18] = experiment: Inhibition of chlorpyrifos-induced fibrosis in albino mouse testis assessed as thin fibrous capsule at 20 mg/kg, qd administered via oral gavage followed by chlorpyrifos challenge at 30 mins post dose by masson's trichrome staining-based light microscopic analysis; format: functional, organism-based
Mus musculus [19] = experiment: Inhibition of chlorpyrifos-induced fibrosis in albino mouse testis assessed as decrease in collagen in interstitium at 20 mg/kg, qd administered via oral gavage followed by chlorpyrifos challenge at 30 mins post dose by masson's trichrome staining-based light microscopic analysis; format: functional, organism-based
Mus musculus [20] = experiment: Inhibition of chlorpyrifos-induced iNOS epression in albino mouse testes at 20 mg/kg, qd administered via oral gavage followed by chlorpyrifos challenge at 30 mins post dose by immunohistochemical analysis; format: functional, organism-based
Mus musculus [21] = experiment: Inhibition of chlorpyrifos-induced caspase3 epression in albino mouse testes at 20 mg/kg, qd administered via oral gavage followed by chlorpyrifos challenge at 30 mins post dose by immunohistochemical analysis; format: functional, organism-based
Mus musculus [22] = experiment: as §3, with “absence” for “appearance”, “crowdedness of interstitial” for “normal sertoli”, “cells with relatively low exudate” for “cells”; format: functional, organism-based
Mus musculus [23] = species: Mus musculus; conditions: 20 mg/kg
Description: Inhibition of chlorpyrifos-induced testicular damage in albino mouse assessed as appearance of spermatozoa tails in narrow lumina at 20 mg/kg, qd administered via oral gavage followed by chlorpyrifos challenge at 30 mins post dose by haematoxylin and eosin staining-based light microscopic analysis

Mus musculus [24] = species: Mus musculus; conditions: 20 mg/kg; remark: listed apart in the source
Description: Inhibition of chlorpyrifos-induced testicular damage in albino mouse assessed as appearance of vesicular nuclei in spermatogenic cells at 20 mg/kg, qd administered via oral gavage followed by chlorpyrifos challenge at 30 mins post dose by haematoxylin and eosin staining-based light microscopic analysis

Mus musculus [25] = species: Mus musculus; conditions: 20 mg/kg; remark: listed apart in the source
Description: Inhibition of chlorpyrifos-induced testicular damage in albino mouse assessed as appearance of cellular vaculations in germinal epithelium at 20 mg/kg, qd administered via oral gavage followed by chlorpyrifos challenge at 30 mins post dose by haematoxylin and eosin staining-based light microscopic analysis

Mus musculus [26] = species: Mus musculus; conditions: 20 mg/kg; remark: listed apart in the source
Description: Inhibition of chlorpyrifos-induced testicular damage in albino mouse assessed as absence of sloughed cells at 20 mg/kg, qd administered via oral gavage followed by chlorpyrifos challenge at 30 mins post dose by haematoxylin and eosin staining-based light microscopic analysis

Mus musculus [27] = species: Mus musculus; conditions: 20 mg/kg; remark: listed apart in the source
Description: Inhibition of chlorpyrifos-induced testicular damage in albino mouse assessed as appearance of separated semniferous tubules by narrow interstitium without exudate at 20 mg/kg, qd administered via oral gavage followed by chlorpyrifos challenge at 30 mins post dose by haematoxylin and eosin staining-based light microscopic analysis

MCF7 [28] = experiment: Growth inhibition of human MCF7 cells after 48 hrs by SRB assay; format: functional; conditions: MCF7, 48 h
MDA-MB-435 = experiment: Growth inhibition of human MDA-MB-435 cells after 48 hrs by SRB assay; format: functional; conditions: MDA-MB-435, 48 h

Sequence of Serine/threonine-protein kinase B-raf (P28028 whole entry, looked up, stated change not applied): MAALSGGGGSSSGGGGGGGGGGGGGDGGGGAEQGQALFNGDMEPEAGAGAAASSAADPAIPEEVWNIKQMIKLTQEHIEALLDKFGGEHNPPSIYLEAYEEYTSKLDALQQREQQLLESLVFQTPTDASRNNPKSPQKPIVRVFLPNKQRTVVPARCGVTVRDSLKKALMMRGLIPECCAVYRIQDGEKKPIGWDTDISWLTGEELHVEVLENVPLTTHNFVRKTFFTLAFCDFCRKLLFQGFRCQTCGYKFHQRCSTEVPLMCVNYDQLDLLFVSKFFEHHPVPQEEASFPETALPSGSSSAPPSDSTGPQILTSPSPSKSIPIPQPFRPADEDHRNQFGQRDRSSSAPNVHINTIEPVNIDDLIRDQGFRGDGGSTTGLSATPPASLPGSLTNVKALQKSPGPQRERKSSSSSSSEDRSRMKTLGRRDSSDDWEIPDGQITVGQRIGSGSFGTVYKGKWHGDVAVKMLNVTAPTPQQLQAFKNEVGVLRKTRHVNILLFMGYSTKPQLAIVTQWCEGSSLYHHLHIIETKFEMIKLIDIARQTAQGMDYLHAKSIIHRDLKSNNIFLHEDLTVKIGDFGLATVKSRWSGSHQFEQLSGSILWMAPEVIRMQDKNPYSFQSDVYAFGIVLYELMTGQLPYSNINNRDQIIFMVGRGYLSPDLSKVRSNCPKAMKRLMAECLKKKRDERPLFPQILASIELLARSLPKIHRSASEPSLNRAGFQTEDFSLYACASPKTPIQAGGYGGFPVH
Sequence of Epidermal growth factor receptor (P00533 whole entry, the tested form may be a part): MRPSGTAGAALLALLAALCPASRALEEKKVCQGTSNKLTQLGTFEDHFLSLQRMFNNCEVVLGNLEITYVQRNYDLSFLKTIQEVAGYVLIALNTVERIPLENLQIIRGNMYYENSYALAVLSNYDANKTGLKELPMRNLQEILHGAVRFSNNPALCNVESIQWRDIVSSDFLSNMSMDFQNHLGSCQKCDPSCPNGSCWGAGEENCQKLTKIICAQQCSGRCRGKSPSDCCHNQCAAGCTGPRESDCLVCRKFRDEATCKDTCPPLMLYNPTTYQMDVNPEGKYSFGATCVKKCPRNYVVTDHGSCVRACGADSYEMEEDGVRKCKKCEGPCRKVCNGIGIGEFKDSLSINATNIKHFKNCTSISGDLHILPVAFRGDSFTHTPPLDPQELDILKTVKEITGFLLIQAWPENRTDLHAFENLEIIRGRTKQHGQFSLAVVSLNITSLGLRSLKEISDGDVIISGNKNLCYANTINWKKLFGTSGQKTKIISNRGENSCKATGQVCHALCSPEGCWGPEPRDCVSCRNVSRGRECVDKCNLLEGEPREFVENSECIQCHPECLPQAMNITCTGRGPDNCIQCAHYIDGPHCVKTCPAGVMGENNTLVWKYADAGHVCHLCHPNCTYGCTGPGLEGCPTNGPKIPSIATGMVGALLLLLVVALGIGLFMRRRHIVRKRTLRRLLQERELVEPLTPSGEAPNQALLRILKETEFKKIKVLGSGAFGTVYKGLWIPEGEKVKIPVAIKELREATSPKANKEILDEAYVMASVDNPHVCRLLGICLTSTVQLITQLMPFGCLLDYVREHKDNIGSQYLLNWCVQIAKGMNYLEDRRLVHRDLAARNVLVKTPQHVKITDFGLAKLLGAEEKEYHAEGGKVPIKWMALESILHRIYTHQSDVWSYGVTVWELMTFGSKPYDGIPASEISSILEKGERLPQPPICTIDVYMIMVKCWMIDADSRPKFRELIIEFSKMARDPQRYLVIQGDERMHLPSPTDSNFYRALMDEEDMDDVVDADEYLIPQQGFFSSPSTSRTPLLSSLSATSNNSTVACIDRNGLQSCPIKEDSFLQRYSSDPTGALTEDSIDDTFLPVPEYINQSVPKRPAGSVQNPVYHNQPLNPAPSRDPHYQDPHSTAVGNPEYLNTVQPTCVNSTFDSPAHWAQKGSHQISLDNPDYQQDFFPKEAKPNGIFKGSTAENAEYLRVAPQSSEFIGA

O=c1[nH]c(Cc2ccccc2)cn2c1cc1cc(Cl)ccc12
viability at 96 h, 50 µM [1]: 89% | inhibition at 0.78 µg/mL [2]: 47% | inhibition at 1.56 µg/mL [3]: 55% | IC50 (PC-3): 1.3 µM | IC50 (A549): 1.2 µM | IC50 (MCF7 [4]): 0.9 µM | IC50 (MIA PaCa-2): 1.8 µM | IC50 (HT-29): 0.9 µM | Activity (Tubulin (Homo sapiens)): 930 a.u. | IC50 [5]: 2.4 µM | IC50 [6]: 1 µM | inhibition at 3.13 µg/mL [7]: 64% | inhibition at 6.25 µg/mL [8]: 72% | inhibition at 12.5 µg/mL [9]: 81% | IC50 [10]: 3.36 µM | inhibition (Homo sapiens): Dose-dependent effect | Activity [11]: 91.4% | Activity [12]: 79.6% | Activity [13]: 69.4% | inhibition (Mus musculus [14]): Active | inhibition (Mus musculus [15]): Active | inhibition (Mus musculus [16]): Active | inhibition (Mus musculus [17]): Active | inhibition (Mus musculus [18]): Active | inhibition (Mus musculus [19]): Active | inhibition (Mus musculus [20]): Active | inhibition (Mus musculus [21]): Active | inhibition (Mus musculus [22]): Active

Cc1c2cc(Cl)ccc2n2cc(Cc3ccccc3)[nH]c(=O)c12
viability at 96 h, 50 µM [1]: 91% | inhibition at 0.78 µg/mL [2]: 55% | inhibition at 1.56 µg/mL [3]: 60% | IC50 (PC-3): 0.9 µM | IC50 (A549): 0.8 µM | IC50 (MCF7 [4]): 0.1 µM | IC50 (MIA PaCa-2): 0.3 µM | IC50 (HT-29): 0.6 µM | Activity (Tubulin (Homo sapiens)): 650 a.u. | IC50 [6]: 0.1 µM | inhibition at 3.13 µg/mL [7]: 72% | inhibition at 6.25 µg/mL [8]: 85% | inhibition at 12.5 µg/mL [9]: 91% | IC50 [10]: 1.48 µM | inhibition (Homo sapiens): Dose-dependent effect | Activity [11]: 97.7% | Activity [12]: 85.4% | Activity [13]: 72.3% | inhibition (Mus musculus [14]): Active | inhibition (Mus musculus [18]): Active | inhibition (Mus musculus [19]): Active | inhibition (Mus musculus [20]): Active | inhibition (Mus musculus [21]): Active | inhibition (Mus musculus [23]): Active | inhibition (Mus musculus [24]): Active | inhibition (Mus musculus [25]): Active | inhibition (Mus musculus [26]): Active | inhibition (Mus musculus [27]): Active

Cc1ccc(S(=O)(=O)N2c3ccccc3CC2c2nc(Br)cnc2N)cc1 (stereo not drawn)
GI50 (MCF7 [28]): 0.82 µM | GI50 (MDA-MB-435): 0.29 µM

Source: ChEMBL document CHEMBL4196002, “Design, synthesis, mechanistic and histopathological studies of small-molecules of novel indole-2-carboxamides and pyrazino[1,2-a]indol-1(2H)-ones as potential anticancer agents effecting the reactive oxygen species production” (Eur J Med Chem, 2018)
